ChEMBL document CHEMBL3217707, “A matched molecular pair analysis of in vitro human microsomal metabolic stability measurements for heterocyclic replacements of di-substituted benzene containing compounds identification of those isosteres more likely to have beneficial effects” (Medchemcomm, 2012)

Legend:
[1] = Intrinsic clearance in human liver microsomes after 30 mins; assay type: ADME; details: read-out: CLH
[2] = Lipophilicity, log D of the compound at pH 7.4; details: buffer

Compound	microsomal CLint [1]	logD [2]
CC(C)(C)OC(=O)N1CCN(c2ncc(OCc3ccc(S(C)(=O)=O)cc3)cn2)CC1	60 µL/min/mg	
CC(C)(C)OC(=O)N1CCN(c2cnc(OCc3ccc(S(C)(=O)=O)cc3)nc2)CC1	86.8 µL/min/mg	
CC(C)(C)OC(=O)N1CCN(c2ccc(OCc3ccc(S(C)(=O)=O)cc3)nn2)CC1	139 µL/min/mg	2.8
CC(C)(C)OC(=O)N1CCN(c2cnc(OCc3ccc(S(C)(=O)=O)cc3)cn2)CC1	29.9 µL/min/mg	3.4
CC(C)(C)OC(=O)N1CCN(c2ccc(OCc3ccc(S(C)(=O)=O)cc3)cn2)CC1	247 µL/min/mg	3.2
CC(C)(C)OC(=O)N1CCN(c2ccc(OCc3ccc(S(C)(=O)=O)cc3)nc2)CC1	105 µL/min/mg	
CC(C)(C)OC(=O)N1CCN(c2ccc(OCc3ccc(S(C)(=O)=O)cc3)cc2)CC1	62.6 µL/min/mg	3.9
CC(C)(C)OC(=O)N1CCN(c2ncc(OCc3ccc(S(C)(=O)=O)cc3)nn2)CC1	131 µL/min/mg	2.9
